From US7304174B2, “CaSR antagonist” (Japan Tobacco Inc., priority 2003, dated 2007)

Assays:
PTH secretion = PTH secretion action, Experimental Example 2 (serum PTH after oral administration); format: in vivo, male SD rats; conditions: test compound administration group, 1 mg/5 ml/kg oral, rats fasted 20 hr
Experimental: The test compound was orally administered to 5 to 9-week-old male SD rats (Charles River Japan, Inc.) fasted for 20 hr, using a solvent (0.5% methyl cellulose solution) at a dose of 1 mg/5 ml/kg. A solvent alone was orally administered to the control group at a dose of 5 ml/kg. The blood was drawn from the tail vein immediately before and, 15 min, 30 min, 60 min and 120 min after the administration of the test compound, and serum was obtained. The serum PTH concentration was measured using rat PTH ELISA kit (Amersham Biosciences).

human calcium receptor = molecular target: T1, human calcium receptor (Homo sapiens, UniProt P41180); assay: Evaluation of antagonistic action on calcium receptor using reporter gene (luciferase); format: cell-based; conditions: transformed rat adrenal derived cells, 5 mM calcium chloride, culture 4 hrs, luciferase activity; read-out: Reporter gene assay (IC50, concentration showing 50% inhibitory rate)
T1 construct: expressed in transfected cells; host or cells: cell strain derived from rat adrenal, co-transformed with luciferase cDNA
T1 sequence (P41180 20-1078): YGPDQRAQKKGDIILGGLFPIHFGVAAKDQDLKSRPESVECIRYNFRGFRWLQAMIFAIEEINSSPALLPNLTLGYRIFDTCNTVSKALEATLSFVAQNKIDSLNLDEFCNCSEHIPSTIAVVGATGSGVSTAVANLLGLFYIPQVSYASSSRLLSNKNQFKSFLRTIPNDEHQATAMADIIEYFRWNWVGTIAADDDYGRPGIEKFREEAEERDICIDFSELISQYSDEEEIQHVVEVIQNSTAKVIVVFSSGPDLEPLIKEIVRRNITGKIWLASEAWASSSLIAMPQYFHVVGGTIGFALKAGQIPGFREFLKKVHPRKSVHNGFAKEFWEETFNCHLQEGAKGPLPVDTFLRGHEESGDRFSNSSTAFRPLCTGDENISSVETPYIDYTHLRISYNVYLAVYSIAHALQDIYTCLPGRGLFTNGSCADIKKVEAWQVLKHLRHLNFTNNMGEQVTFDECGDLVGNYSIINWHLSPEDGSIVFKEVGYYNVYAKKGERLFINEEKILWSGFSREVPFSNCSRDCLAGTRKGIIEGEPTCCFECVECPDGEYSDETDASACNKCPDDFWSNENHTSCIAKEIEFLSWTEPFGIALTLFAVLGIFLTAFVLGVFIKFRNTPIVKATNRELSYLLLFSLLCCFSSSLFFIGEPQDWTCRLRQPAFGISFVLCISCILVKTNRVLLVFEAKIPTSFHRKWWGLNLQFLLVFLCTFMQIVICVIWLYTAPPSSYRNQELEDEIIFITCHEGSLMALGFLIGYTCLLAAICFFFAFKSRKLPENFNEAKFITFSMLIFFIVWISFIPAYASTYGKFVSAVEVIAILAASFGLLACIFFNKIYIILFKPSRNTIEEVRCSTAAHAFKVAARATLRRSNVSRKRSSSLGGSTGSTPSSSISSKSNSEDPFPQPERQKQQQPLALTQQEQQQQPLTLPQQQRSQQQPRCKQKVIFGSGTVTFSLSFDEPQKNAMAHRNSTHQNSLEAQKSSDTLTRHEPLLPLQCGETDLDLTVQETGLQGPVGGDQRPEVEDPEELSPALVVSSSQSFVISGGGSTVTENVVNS
Procedure, shortened: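 Rat adrenal-derived cells transfected with luciferase and human calcium receptor cDNA, in F12 with 0.5% dialyzed horse serum and 0.25% dialyzed fetal bovine serum. Luciferase luminescence gave % inhibition vs control and blank; IC50 at 50% inhibition.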

bone resorption = assay: Concomitant administration of test compound and estrogen: bone resorption marker blood ICTP; format: in vivo, ovariectomized rats; conditions: for Blood ICTP concentration: mean ± S.D., n = 5
Experimental: The 13-week-old ovariectomized rats were divided into 4 groups of a control group (Group A), an estrogen administration group (Group B), a test compound administration group (Group C), and a test compound and estrogen concomitant administration group (Group D). One sham control group (E group) subjected to a sham surgery was also established. Estradiol was dissolved in 5% benzyl alcohol-corn oil and subcutaneously administered to an estrogen administration groups (Group B and Group D) at the dose of 10 μg/kg. 5% Benzyl alcohol-corn oil was subcutaneously administered to groups (Group A and Group C) free from administration of estrogen. The compound of Example 1-1 was suspended in 0.5% methyl cellulose solution and orally administered to groups (Group C and Group D) to be administered with the test compound at the dose of 3 mg/kg. As regards the groups (Group A and Group B) free from administration of the test compound, 0.5% methyl cellulose solution was orally administered. On day 13 from the start of the administration, the blood was drawn in each group from the tail vein, and serum was obtained. ICTP, which is a blood bone resorption marker, was measured using a commercially available ELISA kit (“RatLaps ELISA kit”, Nordic Bioscience Diagnostics).

Cc1ccc(CC(C)(C)NC[C@@H](O)CO[C@H](C)c2ccccc2-c2ccc(C(=O)O)c(C)c2)cc1F [Example 1-1, 2′-[(1R)-[(2R)-3-[[1-(3-Fluoro-4-methylphenyl)-2-methylpropan-2-yl]amino]-2-hydroxypropoxy]ethyl]-3-methylbiphenyl-4-carboxylic acid]
Serum PTH concentration 15 min later (PTH secretion; 15 min): 43.9 ± 2.0 pg/mL
Serum PTH concentration 30 min later (PTH secretion; 30 min): 25.0 ± 3.2 pg/mL
Serum PTH concentration 60 min later (PTH secretion; 60 min): 17.9 ± 2.0 pg/mL
Serum PTH concentration 120 min later (PTH secretion; 120 min): 14.8 ± 1.6 pg/mL
IC50 (human calcium receptor): 24 nM
Effect of concomitant administration on suppression of ICTP increase by estrogen (bone resorption; Table 65, concomitant with estrogen): did not show changes in the ability to suppress estrogen
Blood ICTP concentration (bone resorption; day 13, Group D: Example 1-1 3 mg/kg oral and estradiol 10 μg/kg s.c. concomitant): 21.77 ± 3.34 ng/mL
Blood ICTP concentration (bone resorption; day 13, exclusive administration (Group B estradiol 10 μg/kg s.c.; Group C Example 1-1 3 mg/kg oral)): 26.10 ± 3.45 ng/mL
